Experimental data reported in paper PMC7401278, “Sortase A-Inhibitory Metabolites from a Marine-Derived Fungus Aspergillus sp” (Marine Drugs, 2020).
Values after ≈ are worked out from the molar mass of the structure shown. Read-outs that look alike come from different tables or passages of the source.

Assays:
S. aureus ATCC6538p = assay: Antibacterial activity assay (MIC); type: cell-based; settings: Staphylococcus aureus, overnight at 37 °C
Description: (§1) Because SrtA inhibitors are expected to serve as anti-infective agents and inhibit bacterial pathogenesis without affecting cell viability, the minimum inhibitory concentrations (MICs) of these compounds were also measured to exclude the possible effects of test compounds on S. aureus cell adhesion to the eukaryotic cell matrix protein fibronectin owing to the inhibition of cell growth.
The MICs of test compounds were determined as previously described. S. aureus ATCC6538p (5 mL) was cultured in tryptic soy broth to saturation at 37 °C and diluted to an OD600 of 0.01. The culture was incubated for an additional 2 h and diluted to an OD600 of 0.005. In each well of a 96-well plate, 180 µL of cells was mixed with 20 µL of a concentrated test compound solution in 10% DMSO (final concentration, 1% DMSO). Culture plates were incubated overnight at 37 °C, and the OD600 was measured using a Multiskan Spectrum spectrophotometer (Thermo Labsystems Inc., Beverly, MA, USA). MIC values were defined as the lowest concentration of the test compounds inhibiting cell growth. Ampicillin was used as a positive control.

[1] = target: T1, recombinant SrtA derived from S. aureus ATCC6538p (Staphylococcus aureus, UniProt Q2FV99); assay: SrtA inhibition assay (fluorescence, cleavage of dabcyl-LPETG-edans); type: biochemical; settings: 37 °C, 1 h
T1 construct: made in house; host or cells: Escherichia coli
T1 sequence (Q2FV99 whole entry): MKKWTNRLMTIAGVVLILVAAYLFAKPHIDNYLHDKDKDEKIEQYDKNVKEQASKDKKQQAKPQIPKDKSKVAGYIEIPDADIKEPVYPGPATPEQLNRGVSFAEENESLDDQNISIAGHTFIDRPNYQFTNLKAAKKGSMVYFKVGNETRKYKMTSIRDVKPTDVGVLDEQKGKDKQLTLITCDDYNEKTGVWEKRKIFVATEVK
Description: Recombinant SrtA derived from S. aureus ATCC6538p was purified from Escherichia coli extracts using metal chelate-affinity chromatography. The enzyme activity was determined from the fluorescence intensity upon cleavage of a peptide substrate containing the LPETG motif. Throughout the separation process, the crude extract and chromatographic fractions containing fungal metabolites of strain F452 inhibited the activity of SrtA. Accordingly, the same bioassay was performed using pure compounds.
The srtA gene from S. aureus ATCC6538p was expressed and recombinant SrtA was purified as previously described. The SrtA inhibition test was carried out by analyzing the increased fluorescence intensity resulting from the cleavage of synthetic peptide substrate dabcyl-LPETG-edans (AnaSpec, Inc., Fremont, CA, USA) with slight modification. The reaction was carried out with 100 μL buffer (50 mM Tris-HCl, 5 mM CaCl2, and 150 mM NaCl, pH 7.5), 7.5 µM synthetic peptide, 7.5 µM purified SrtA, and test samples at various concentrations. […] The SrtA inhibition assay was conducted at 37 °C for 1 h, and inhibition was quantified fluorometrically using a microplate reader (FLx800, BioTek Instruments, Winooski, VT, USA) at excitation and emission wavelengths of 350 and 495 nm, respectively. pHMB and berberine chloride were used as reference inhibitors of SrtA.

[2] = Cytotoxicity assay (SRB), K562; type: cell-based; settings: human, K562 (leukemia) cells, K562, 72 h
Description: as §1
(§2) The effect of compounds (1–8) on cell proliferation was measured by the sulforhodamine B (SRB) cellular protein-staining method. In brief, A549 (lung cancer) and K562 (leukemia) cells (1 × 10^4 cells in 190 μL of complete DMEM) were seeded in 96-well plates with various concentrations of compounds (1–8) and incubated at 37 °C in a humidified atmosphere with 5% CO2. After 72 h of compound (1–8) treatment, the cells were fixed with 10% TCA solution for 1 h, and cellular proteins were stained with a solution of 0.4% SRB in 1% acetic acid. The stained cells were dissolved in 10 mM Tris buffer (pH 10.0). The effect of compounds (1–8) on cell viability was calculated as a percentage relative to a solvent-treated control, and the IC50 values were calculated using a nonlinear regression analysis (percent survival versus concentration). Etoposide was used as a positive control.

SrtA = target: T2, SrtA (Staphylococcus aureus, UniProt Q2FV99); assay: SrtA enzyme kinetics (Lineweaver-Burk, Dixon plot, dialysis); type: biochemical; settings: for type of inhibition: Lineweaver and Burk plot, at IC50 or twofold IC50; for binding to SrtA (reversibility): enzyme activity recovered by dialysis within 2 h
T2 construct: made in house; host or cells: Escherichia coli
T2 sequence (Q2FV99 whole entry): as above
Description: To determine the type of inhibition, kinetic studies were performed with compounds 1 and 3 at IC50 or twofold IC50 based on a Lineweaver and Burk plot (Figure 2). Inhibitor constants were obtained by a Dixon plot. […] Moreover, the binding of compounds 1 and 3 to SrtA was reversible because the enzyme activity was indeed recovered by dialysis within 2 h, excluding the possible existence of a covalent bond between inhibitor and enzyme.
All sortase (SrtA) assays were performed at 37 °C in SrtA enzyme buffer as described above. The inhibitors 1 and 3 were dissolved in DMSO and immediately diluted to the desired working concentration with the same SrtA buffer. The enzymatic inhibition measurements were carried out at different substrate concentrations in the presence and absence of a given concentration of inhibitor, and their kinetics were evaluated by the Lineweaver and Burk plot method. For the dialysis kinetic studies, a solution of enzyme (0.96 mL, 75 μM) and fixed inhibitor concentration (0.04 mL) was prepared and dialyzed against 100 mL buffer at 37 °C for 2 h using regenerated cellulose dialysis membranes SPECTRAPOR® (Rancho Dominguez, CA, USA). Aliquots of 100 μL of the enzyme-inhibitor mixture were taken in time intervals of 0, 30, 60, 90, and 120 min and added to 0.020 mL of substrate (7.5 μM), and after an hour of incubation the enzyme activity was measured. A control solution prepared with enzyme and buffer (SrtA buffer, 100 μL; SrtA, 7.5 μM) was treated similarly.

[3] = Cytotoxicity assay (SRB), A549; type: cell-based; settings: human, A549 (lung cancer) cells, A549, 72 h
Description: as §1, §2

PC-12 cells = tested on: PC-12 cells; set-up: method as in PMID 14698172; settings: cited from earlier work
[4] = tested on: S. aureus strain Newman (wild-type) adhesion to fibronectin; assay: Fibronectin-binding assay; type: cell-based, Staphylococcus aureus
Description: An active SrtA enzyme is required for the attachment of S. aureus to eukaryotic cell matrix proteins, such as fibronectin and fibrinogen, thus accelerating bacterial adhesion to host tissues and subsequent invasion. The srtA^− mutant strain cannot bind these proteins. Thus, SrtA inhibitors should inhibit SrtA activity in vivo and in turn reduce fibronectin-binding protein surface display. Initially, the SrtA-mediated fibronectin-binding capacities of S. aureus strain Newman (wild-type) and its isogenic srtA knockout mutant (srtA^−) to fibronectin were evaluated. […] Based on SrtA inhibition intensity, compound 1 was selected. The results of the inhibition of S. aureus adhesion to fibronectin via fibronectin-binding protein by compound 1 are shown in Figure 3b.
S. aureus strains used were Newman (wild-type) and the isogenic srtA knockout mutant (srtA^−). These strains were cultured in tryptic soy broth at 37 °C at 200 rpm up to mid-log phase (OD600 = 0.5). The fibronectin-binding assay was performed as described previously. Cells were treated with test compounds at their indicated concentrations. Every 30 min for 2.5 h, a 0.65 mL cell suspension was centrifuged at 10,000× g for 10 min, and the supernatant was eliminated. […] Plates were dried overnight and absorbance was measured at 560 nm using a microplate reader.

Colletotrichum acutatum = tested on: Colletotrichum acutatum; set-up: method as in PMID 26998701; settings: cited from earlier work
Bacillus subtilis = tested on: Bacillus subtilis; set-up: method as in PMID 26363876; settings: cited from earlier work
[5] = tested on: human prostate cancer cell line PC3; set-up: method as in PMID 26363876; settings: cited from earlier work
[6] = SrtA IC50, recombinant SrtA, value in parentheses

| Structure (SMILES) | MIC (S. aureus ATCC6538p) [µM] | MIC (S. aureus ATCC6538p; value in parentheses) [µg/mL] | IC50 ([1]; SrtA IC50, recombinant SrtA) [µM] | IC50 [1, 6] [µM] | IC50 at 72 h [2] [µM] | IC50 at 72 h [3] [µM] | also measured |
| --- | --- | --- | --- | --- | --- | --- | --- |
| CC1(C)S[C@@H]2[C@H](NC(=O)[C@H](N)c3ccccc3)C(=O)N2[C@H]1C(=O)O [Ampicillin, reference compound] | 0.4 | 0.1 | – | – | – | – | – |
| COc1ccc2cc3[n+](cc2c1OC)CCc1cc2c(cc1-3)OCO2 [Berberine chloride, berberine chloride, reference compound] | > 332 | > 128 | 85.9 ± 1.2 | 94.8 | – | – | – |
| CC1CCC2C(C=CC(C)(O)C2(C)C(=O)CCO)C1 (stereo not drawn) [Compound 1, aspermytin A] | > 480 | > 128 | 146 ± 2.3 | 146 ± 0.6 | > 100 | > 100 | Ki (SrtA): 265 µM; type of inhibition (SrtA): mixed inhibitor; binding to SrtA (reversibility) (SrtA): reversible; neurotrophic effects (PC-12 cells): significant neurotrophic effects; onset and magnitude of inhibition of Newman strain adhesion to fibronectin ([4]; 4× the SrtA IC50 value): comparable to the behavior of the untreated srtA knockout mutant; bacterial adherence to fibronectin-coated surfaces ([4]; strain Newman, 0-, 1-, 2-, or 4-fold the SrtA IC50): significantly reduced |
| CCC(C)C1NC(=O)C(C(C)C)n2c1nc1ccc(OC)cc1c2=O (stereo not drawn) [Compound 2, versicomide A] | > 373 | > 128 | 269 ± 3.9 | 269.3 ± 1.4 | 13 to 50 | 13 to 50 | – |
| CCC(C)C1NC(=O)C(C(C)C)n2c1nc1c(c2=O)C=C(OC)C=CO1 (stereo not drawn) [Compound 3, versicoloid A] | > 356 | > 128 | 193 ± 2.5 | 193.4 ± 0.899 | 13 to 50 | 13 to 50 | Ki (SrtA): 83 µM; type of inhibition (SrtA): uncompetitive inhibitor; binding to SrtA (reversibility) (SrtA): reversible; minimum inhibitory concentration (MIC) (Colletotrichum acutatum): 1.6 µg/mL (≈ 4.45 µM) |
| CC1C(=O)N2c3ccccc3C3(O)CC(n4cnc5ccccc5c4=O)C(=O)N1C23 (stereo not drawn) [Compound 4, isochaetominine A] | > 318 | > 128 | 268 ± 4.1 | 267.9 ± 1.5 | 13 to 50 | 13 to 50 | – |
| CCC1C(=O)N2c3ccccc3C3(O)CC(n4cnc5ccccc5c4=O)C(=O)N1C23 (stereo not drawn) [Compound 5, isochaetominine B] | > 307 | > 128 | 232 ± 3.7 | 232.4 ± 1.4 | 13 to 50 | 13 to 50 | – |
| CC(C)C1C(=O)N2c3ccccc3C3(O)CC(n4cnc5ccccc5c4=O)C(=O)N1C23 (stereo not drawn) [Compound 6, isochaetominine C] | > 297 | > 128 | 216 ± 2.5 | 216.3 ± 1.1 | 13 to 50 | 13 to 50 | inhibition against Bacillus subtilis (Bacillus subtilis): weak inhibition |
| CC(C)C1C(=O)N2c3ccccc3C3(O)CC(n4cnc5ccccc5c4=O)C(=O)N1C23 (stereo not drawn) [Compound 7, 14-epi-isochaetominine C] | – | – | 237 ± 3.8 | 237.2 ± 1.2 | – | – | cytotoxic activity [5]: weak cytotoxic activity |
| CC12NC(=O)C(Cc3c1[nH]c1ccccc31)n1c2nc2ccccc2c1=O (stereo not drawn) [Compound 8, fumiquinazoline K] | > 359 | > 128 | – | – | > 100 | > 100 | IC50 ([1]; read-out: SrtA IC50, recombinant SrtA): 235 ± 2.6 µM; IC50 ([1]; read-out: SrtA IC50, recombinant SrtA, value in parentheses): 235.1 ± 0.9 µM |
| COc1cc([C@@H]2c3cc4c(cc3[C@@H](O[C@@H]3O[C@@H]5CO[C@@H](C)O[C@H]5[C@H](O)[C@H]3O)[C@H]3COC(=O)[C@H]23)OCO4)cc(OC)c1O [etoposide, reference compound] | – | – | – | – | 0.5 | 0.5 | – |
| O=C(O)c1cc[c]([Hg][OH])cc1 [pHMB, para-hydroxymercuribenzoic acid, reference compound] | – | – | – | – | – | – | IC50 ([1]; recombinant SrtA, read-out: SrtA IC50): 112 ± 1.7 µM; SrtA IC50 ([1]; recombinant SrtA, value in parentheses): 33.1 ± 0.5 µg/mL |
